Test results from ChEMBL document CHEMBL5143597, “Design and synthesis of novel spirocyclic carboxylic acids as potent and orally bioavailable DGAT1 inhibitors and their biological evaluation” (Bioorg Med Chem Lett, 2022).
One block for each compound: values may come before it.

Assays:
[1] = target: T1, Diacylglycerol O-acyltransferase 1 (Homo sapiens, UniProt O75907); test: Inhibition of human DGAT1 in serum starved HEK293 cells assessed as inhibition of triglyceride synthesis incubated for 20 mins followed by 13C-addition of 13C-oleic acid pre-complexed with BSA for 120 mins by LC-MS-based mass spectrophotometric analysis; format: cell-based
T1 sequence (O75907 whole entry): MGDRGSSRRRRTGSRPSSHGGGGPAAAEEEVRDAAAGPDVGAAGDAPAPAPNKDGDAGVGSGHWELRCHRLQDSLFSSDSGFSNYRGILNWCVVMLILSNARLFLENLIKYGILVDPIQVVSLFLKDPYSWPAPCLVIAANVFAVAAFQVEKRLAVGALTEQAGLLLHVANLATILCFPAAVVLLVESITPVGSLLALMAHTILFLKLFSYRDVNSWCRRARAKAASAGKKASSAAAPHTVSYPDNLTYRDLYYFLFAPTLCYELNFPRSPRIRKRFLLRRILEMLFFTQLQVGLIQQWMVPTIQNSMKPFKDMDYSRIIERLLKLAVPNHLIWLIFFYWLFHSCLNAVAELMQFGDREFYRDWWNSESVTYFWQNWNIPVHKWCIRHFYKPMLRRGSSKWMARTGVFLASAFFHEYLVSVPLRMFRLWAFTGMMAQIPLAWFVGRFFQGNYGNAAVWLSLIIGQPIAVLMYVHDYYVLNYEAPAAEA

[2] = Metabolic stability in rat liver microsomes assessed as parent compound remaining at 1 uM and measured at 30 mins by LC-MS/MS analysis; format: ADME, Microsome; conditions: read-out: Stability
[3] = Metabolic stability in mouse liver microsomes assessed as parent compound remaining at 1 uM and measured at 30 mins by LC-MS/MS analysis; format: ADME, Microsome; conditions: read-out: Stability
[4] = Metabolic stability in human liver microsomes assessed as parent compound remaining at 1 uM and measured at 30 mins by LC-MS/MS analysis; format: ADME, Microsome; conditions: read-out: Stability
[5] = target: hERG (KCNH2) (Homo sapiens, UniProt Q12809); test: Displacement of [3H]astemizole from human ERG expressed in HEK293 cell membrane at 10 uM for 2 hrs by Radiometric displacement assay; format: toxicity; conditions: HEK293 cell membranes that express hERG, probe [3H]astemizole
[6] = Plasma protein binding in rat; format: ADME, cell-free; conditions: read-out: PPB
[7] = Plasma protein binding in mouse; format: ADME, cell-free; conditions: read-out: PPB (converted)
[8] = target: T2, CYP1A2 (Homo sapiens, UniProt P05177); test: Inhibition of recombinant human CYP1A2 at 25 uM by fluorescence plate reader analysis; format: ADME
T2 sequence (P05177 whole entry): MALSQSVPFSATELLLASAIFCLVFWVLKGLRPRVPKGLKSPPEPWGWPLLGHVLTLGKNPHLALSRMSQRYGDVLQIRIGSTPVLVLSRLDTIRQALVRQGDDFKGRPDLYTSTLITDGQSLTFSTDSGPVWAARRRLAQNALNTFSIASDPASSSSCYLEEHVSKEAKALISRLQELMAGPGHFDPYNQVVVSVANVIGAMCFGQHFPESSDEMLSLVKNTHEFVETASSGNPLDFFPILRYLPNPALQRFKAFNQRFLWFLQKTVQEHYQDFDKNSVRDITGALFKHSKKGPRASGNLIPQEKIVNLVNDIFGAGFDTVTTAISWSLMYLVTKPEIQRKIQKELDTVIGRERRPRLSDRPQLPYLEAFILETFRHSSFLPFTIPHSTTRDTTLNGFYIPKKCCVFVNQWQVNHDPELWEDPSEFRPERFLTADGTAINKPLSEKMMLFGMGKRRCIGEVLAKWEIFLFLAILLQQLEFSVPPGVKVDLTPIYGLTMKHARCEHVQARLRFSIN

[9] = target: CYP3A4 (Homo sapiens, UniProt P08684); test: Inhibition of recombinant human CYP3A4 at 25 uM by fluorescence plate reader analysis; format: ADME
[10] = target: CYP2D6 (Homo sapiens, UniProt P10635); test: Inhibition of recombinant human CYP2D6 at 10 uM by fluorescence plate reader analysis; format: ADME
[11] = Solubility of compound in PBS at pH 2 incubated for 4 hrs under shaking condition by UV absorbance based analysis; format: physicochemical
[12] = Solubility of compound in PBS at pH 4 incubated for 4 hrs under shaking condition by UV absorbance based analysis; format: physicochemical
[13] = Solubility of compound in PBS at pH 7.4 incubated for 4 hrs under shaking condition by UV absorbance based analysis; format: physicochemical
[14] = Solubility of compound in PBS at pH 9 incubated for 4 hrs under shaking condition by UV absorbance based analysis; format: physicochemical
[15] = Clearance in C57BL/6 mouse at 3 mg/kg, iv or 10 mg/kg, po and measured up to 24 hrs by LC-MS/MS analysis; format: ADME, organism-based; conditions: in vivo
[16] = Apparent permeability across apical to basolateral side in MDCK cells at 2.5 uM for 90 mins; format: ADME, cell-based, Canis lupus familiaris; conditions: dog
[17] = Volume of distribution at steady state in C57BL/6 mouse at 3 mg/kg, iv or 10 mg/kg, po and measured up to 24 hrs by LC-MS/MS analysis; format: ADME, organism-based; conditions: in vivo, read-out: Vdss
[18] = AUC in C57BL/6 mouse at 3 mg/kg, iv or 10 mg/kg, po and measured up to 24 hrs by LC-MS/MS analysis; format: ADME, organism-based; set-up: time < 24 hrs, dose 3 mg/kg, route iv; conditions: in vivo
[19] = Cmax in C57BL/6 mouse at 3 mg/kg, iv or 10 mg/kg, po and measured up to 24 hrs by LC-MS/MS analysis; format: ADME, organism-based; set-up: dose 3 mg/kg, time < 24 hrs, route iv; conditions: in vivo
[20] = Tmax in C57BL/6 mouse at 3 mg/kg, iv or 10 mg/kg, po and measured up to 24 hrs by LC-MS/MS analysis; format: ADME, organism-based; conditions: in vivo
[21] = Half life in C57BL/6 mouse at 3 mg/kg, iv or 10 mg/kg, po and measured up to 24 hrs by LC-MS/MS analysis; format: ADME, organism-based; conditions: in vivo
[22] = Oral bioavailability in C57BL/6 mouse 10 mg/kg or 3 mg/kg, iv and measured up to 24 hrs by LC-MS/MS analysis; format: ADME, organism-based; conditions: in vivo
[23] = Volume of distribution at steady state in Wistar rat at 3 mg/kg, iv or 10 mg/kg, po and measured up to 24 hrs by LC-MS/MS analysis; format: ADME, organism-based; conditions: in vivo, read-out: Vdss
[24] = Clearance in Wistar rat at 3 mg/kg, iv or 10 mg/kg, po and measured up to 24 hrs by LC-MS/MS analysis; format: ADME, organism-based; conditions: in vivo
[25] = AUC in Wistar rat at 3 mg/kg, iv or 10 mg/kg, po and measured up to 24 hrs by LC-MS/MS analysis; format: ADME, organism-based; set-up: dose 3 mg/kg, time < 24 hrs, route iv; conditions: in vivo
[26] = Cmax in Wistar rat at 3 mg/kg, iv or 10 mg/kg, po and measured up to 24 hrs by LC-MS/MS analysis; format: ADME, organism-based; set-up: dose 3 mg/kg, time < 24 hrs, route iv; conditions: in vivo
[27] = Tmax in Wistar rat at 3 mg/kg, iv or 10 mg/kg, po and measured up to 24 hrs by LC-MS/MS analysis; format: ADME, organism-based; conditions: in vivo
[28] = Half life in Wistar rat at 3 mg/kg, iv or 10 mg/kg, po and measured up to 24 hrs by LC-MS/MS analysis; format: ADME, organism-based; conditions: in vivo
[29] = Oral bioavailability in Wistar rat at 10 mg/kg or 3 mg/kg, iv and measured up to 24 hrs by LC-MS/MS analysis; format: ADME, organism-based; conditions: in vivo
[30] = Drug distribution in C57BL/6 mouse plasma 10 mg/kg, po and measured at 1 hrs post dose by LC-MS/MS analysis; format: ADME, organism-based
[31] = Drug distribution in C57BL/6 mouse plasma 10 mg/kg, po and measured at 2 hrs post dose by LC-MS/MS analysis; format: ADME, organism-based
[32] = Drug distribution in C57BL/6 mouse plasma 10 mg/kg, po and measured at 8 hrs post dose by LC-MS/MS analysis; format: ADME, organism-based
[33] = Drug distribution in C57BL/6 mouse adipose tissue 10 mg/kg, po and measured at 1 hrs post dose by LC-MS/MS analysis; format: ADME, organism-based; conditions: read-out: Ct
[34] = Drug distribution in C57BL/6 mouse adipose tissue 10 mg/kg, po and measured at 2 hrs post dose by LC-MS/MS analysis; format: ADME, organism-based; conditions: read-out: Ct
[35] = Drug distribution in C57BL/6 mouse adipose tissue 10 mg/kg, po and measured at 8 hrs post dose by LC-MS/MS analysis; format: ADME, organism-based; conditions: read-out: Ct
[36] = Drug distribution in C57BL/6 mouse liver 10 mg/kg, po and measured at 1 hrs post dose by LC-MS/MS analysis; format: ADME, organism-based; conditions: read-out: Ct
[37] = Drug distribution in C57BL/6 mouse liver 10 mg/kg, po and measured at 2 hrs post dose by LC-MS/MS analysis; format: ADME, organism-based; conditions: read-out: Ct
[38] = Drug distribution in C57BL/6 mouse liver 10 mg/kg, po and measured at 8 hrs post dose by LC-MS/MS analysis; format: ADME, organism-based; conditions: read-out: Ct
[39] = Drug distribution in C57BL/6 mouse skeletal muscle 10 mg/kg, po and measured at 1 hrs post dose by LC-MS/MS analysis; format: ADME, organism-based, Skeletal muscle tissue; conditions: read-out: Ct
[40] = Drug distribution in C57BL/6 mouse skeletal muscle 10 mg/kg, po and measured at 2 hrs post dose by LC-MS/MS analysis; format: ADME, organism-based, Skeletal muscle tissue; conditions: read-out: Ct
[41] = Drug distribution in C57BL/6 mouse skeletal muscle 10 mg/kg, po and measured at 8 hrs post dose by LC-MS/MS analysis; format: ADME, organism-based, Skeletal muscle tissue; conditions: read-out: Ct
[42] = Drug distribution in C57BL/6 mouse brain 10 mg/kg, po and measured at 1 hrs post dose by LC-MS/MS analysis; format: ADME, organism-based; conditions: read-out: Ct
[43] = Drug distribution in C57BL/6 mouse brain 10 mg/kg, po and measured at 2 hrs post dose by LC-MS/MS analysis; format: ADME, organism-based; conditions: read-out: Ct
[44] = target: CYP2C9 (Homo sapiens, UniProt P11712); test: Inhibition of recombinant human CYP2C9 at 25 uM by fluorescence plate reader analysis; format: ADME
Chain of CYP2C9 (P11712 whole entry): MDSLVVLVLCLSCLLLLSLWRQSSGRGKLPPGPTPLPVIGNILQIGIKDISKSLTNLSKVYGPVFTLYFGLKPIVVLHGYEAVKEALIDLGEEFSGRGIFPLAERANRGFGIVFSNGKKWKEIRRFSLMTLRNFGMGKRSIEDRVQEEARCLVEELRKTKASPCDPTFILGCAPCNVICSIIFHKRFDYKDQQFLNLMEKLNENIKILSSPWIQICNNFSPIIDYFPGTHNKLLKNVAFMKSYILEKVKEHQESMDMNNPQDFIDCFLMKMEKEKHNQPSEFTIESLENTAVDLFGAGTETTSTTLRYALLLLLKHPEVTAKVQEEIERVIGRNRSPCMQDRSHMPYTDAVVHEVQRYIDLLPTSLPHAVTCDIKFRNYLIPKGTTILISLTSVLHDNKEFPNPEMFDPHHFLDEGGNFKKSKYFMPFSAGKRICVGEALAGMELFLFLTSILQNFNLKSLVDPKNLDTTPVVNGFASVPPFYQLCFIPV

Chain of hERG (KCNH2) (Q12809 whole entry): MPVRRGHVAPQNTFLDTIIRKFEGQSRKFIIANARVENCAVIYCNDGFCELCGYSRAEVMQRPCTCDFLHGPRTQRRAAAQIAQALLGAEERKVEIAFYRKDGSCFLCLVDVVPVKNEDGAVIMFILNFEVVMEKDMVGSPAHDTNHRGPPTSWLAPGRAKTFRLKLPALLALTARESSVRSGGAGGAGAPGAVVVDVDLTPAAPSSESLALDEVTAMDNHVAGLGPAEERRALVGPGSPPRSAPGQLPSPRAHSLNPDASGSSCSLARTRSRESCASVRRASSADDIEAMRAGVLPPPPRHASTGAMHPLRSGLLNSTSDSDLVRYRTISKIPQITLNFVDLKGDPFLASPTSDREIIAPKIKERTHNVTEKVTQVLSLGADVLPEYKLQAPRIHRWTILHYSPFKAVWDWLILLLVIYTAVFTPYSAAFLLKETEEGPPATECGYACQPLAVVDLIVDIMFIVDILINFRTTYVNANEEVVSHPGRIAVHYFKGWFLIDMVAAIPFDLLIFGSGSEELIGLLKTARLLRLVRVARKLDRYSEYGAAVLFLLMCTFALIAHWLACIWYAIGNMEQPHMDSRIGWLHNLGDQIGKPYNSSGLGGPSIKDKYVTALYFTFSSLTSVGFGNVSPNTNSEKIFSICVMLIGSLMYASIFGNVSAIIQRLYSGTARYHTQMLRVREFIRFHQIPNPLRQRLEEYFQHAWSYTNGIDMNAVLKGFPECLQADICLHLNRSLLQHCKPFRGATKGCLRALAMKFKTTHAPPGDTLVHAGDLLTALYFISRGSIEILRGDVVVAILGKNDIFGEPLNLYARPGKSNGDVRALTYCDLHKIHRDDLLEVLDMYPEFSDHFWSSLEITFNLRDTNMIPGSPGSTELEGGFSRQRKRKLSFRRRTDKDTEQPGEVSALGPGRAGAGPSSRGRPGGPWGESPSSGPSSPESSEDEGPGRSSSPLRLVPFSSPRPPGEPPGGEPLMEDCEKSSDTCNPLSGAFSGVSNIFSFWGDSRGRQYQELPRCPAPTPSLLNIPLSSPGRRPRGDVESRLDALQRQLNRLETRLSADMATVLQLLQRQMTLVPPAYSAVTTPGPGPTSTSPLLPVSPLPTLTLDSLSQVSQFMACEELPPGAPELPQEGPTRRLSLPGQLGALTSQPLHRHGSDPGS
Chain of CYP3A4 (P08684 whole entry): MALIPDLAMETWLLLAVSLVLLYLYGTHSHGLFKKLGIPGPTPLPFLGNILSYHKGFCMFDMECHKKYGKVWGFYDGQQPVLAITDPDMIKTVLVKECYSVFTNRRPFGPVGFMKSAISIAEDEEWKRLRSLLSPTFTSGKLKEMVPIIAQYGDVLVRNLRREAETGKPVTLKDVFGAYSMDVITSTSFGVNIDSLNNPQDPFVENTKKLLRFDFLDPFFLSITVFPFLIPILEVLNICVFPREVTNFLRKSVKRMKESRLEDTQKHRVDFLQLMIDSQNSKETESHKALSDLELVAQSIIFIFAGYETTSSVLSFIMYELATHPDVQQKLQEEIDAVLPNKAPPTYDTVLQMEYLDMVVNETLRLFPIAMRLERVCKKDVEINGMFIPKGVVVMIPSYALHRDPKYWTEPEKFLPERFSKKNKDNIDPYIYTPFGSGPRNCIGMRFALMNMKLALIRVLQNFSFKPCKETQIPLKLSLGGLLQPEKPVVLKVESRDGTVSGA
Chain of CYP2D6 (P10635 whole entry): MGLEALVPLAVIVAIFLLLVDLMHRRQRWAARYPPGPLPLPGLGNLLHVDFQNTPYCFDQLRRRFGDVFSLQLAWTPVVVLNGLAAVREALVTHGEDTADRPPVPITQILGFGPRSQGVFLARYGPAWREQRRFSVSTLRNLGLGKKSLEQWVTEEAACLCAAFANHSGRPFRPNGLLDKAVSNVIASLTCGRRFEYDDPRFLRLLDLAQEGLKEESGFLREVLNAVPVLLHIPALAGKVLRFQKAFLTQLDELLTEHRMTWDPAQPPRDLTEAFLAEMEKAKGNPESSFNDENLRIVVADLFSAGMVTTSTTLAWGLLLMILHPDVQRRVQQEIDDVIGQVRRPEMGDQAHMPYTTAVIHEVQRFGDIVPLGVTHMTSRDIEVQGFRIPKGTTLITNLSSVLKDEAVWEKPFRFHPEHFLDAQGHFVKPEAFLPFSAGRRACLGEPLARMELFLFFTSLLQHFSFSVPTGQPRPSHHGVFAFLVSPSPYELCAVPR

IC50 [1]: 14.6 nM
remaining at 0.5 h, 1 µM [2]: 96%
remaining at 0.5 h, 1 µM [3]: 97%
remaining at 0.5 h, 1 µM [4]: 100%
fraction unbound [6]: 0.01
fraction unbound [7]: < 0.01
Compound: O=C(O)CC1CCC2(CC1)CCC(c1ccc(NC(=O)c3nnc(Nc4ccc(F)c(F)c4)o3)cc1)CC2 (stereo in doubt; 8)
inhibition at 2 h, 10 µM [5]: 18%

inhibition at 25 µM [8]: 8%
inhibition at 25 µM [9]: 12%
inhibition at 10 µM [10]: 7%
solubility at 4 h [11]: 8 µM
solubility at 4 h [12]: < 6 µM
solubility at 4 h [13]: 37 µM
solubility at 4 h [14]: < 6 µM
Compound: O=C([O-])CC1CCC2(CC1)CCN(c1ccc(NC(=O)c3nnc(Nc4ccc(F)c(F)c4)o3)cn1)CC2.[Na+]

remaining at 0.5 h, 1 µM [2]: 84%
remaining at 0.5 h, 1 µM [3]: 78%
remaining at 0.5 h, 1 µM [4]: 100%
fraction unbound [6]: 0.01
fraction unbound [7]: 0.01
clearance [15]: 60 mL/min/kg
Papp A→B at 1.5 h, 2.5 µM [16]: 5.3 ×10⁻⁶ cm/s
Vd [17]: 13 L/kg
AUC at 24 h [18]: 1.6 µM·h
Cmax [19]: 1000 nM
Tmax [20]: 0.25 h
half-life [21]: 5.7 h
bioavailability [22]: 41%
Vd [23]: 0.6 L/kg
clearance [24]: 3.3 mL/min/kg
AUC at 24 h [25]: 30 µM·h
Cmax [26]: 9200 nM
Tmax [27]: 1.4 h
half-life [28]: 3.1 h
bioavailability [29]: 38%
concentration at 1 h [30]: 1870 nM
concentration at 2 h [31]: 1460 nM
concentration at 8 h [32]: 60 nM
concentration at 1 h [33]: 160 nM
concentration at 2 h [34]: 150 nM
concentration at 8 h [35]: 10 nM
concentration at 1 h [36]: 39200 nM
concentration at 2 h [37]: 54900 nM
concentration at 8 h [38]: 22200 nM
concentration at 1 h [39]: 100 nM
concentration at 2 h [40]: 50 nM
concentration at 8 h [41]: 10 nM
concentration at 1 h [42]: 10 nM
concentration at 2 h [43]: 10 nM
Compound: O=C(O)CC1CCC2(CC1)CCN(c1ccc(NC(=O)c3nnc(Nc4ccc(F)c(F)c4)o3)cn1)CC2
inhibition at 2 h, 10 µM [5]: 10%

inhibition at 25 µM [8]: 18%
inhibition at 25 µM [9]: 16%
inhibition at 25 µM [44]: 24%
Compound: O=C(Nc1ccc(C2CCC3(CC2)CC(C(=O)O)C3)cc1)c1nnc(Nc2ccc(F)c(F)c2)o1 (configuration not stated)
